In US8470787B2, “Hydrates of erythromycin salts, preparation and use thereof” (priority 2008, dated 2013):
Read-outs that look alike come from different tables or passages of the source.

Assays:
[1] = hygroscopic test according to China Pharmacopeia CP2005; type: physicochemical; conditions: 25° C.
Staphylococcus aureus = assay: antibacterial activity, tube double dilution method, clinically obtained bacteria; type: cell-based; conditions: 26 strains
[2] = system: Staphylococcus epidermidis; assay: as above; type: cell-based; conditions: 21 strains
Neisseria gonorrhoeae = assay: as above; type: cell-based; conditions: for MIC50 / MIC90: 16 strains; for MIC: range over 16 strains
Experimental: (§1) The antibacterial activities of the hydrates of erythromycin salts are determined by culturing clinically obtained bacteria and measuring in accordance with pharmacological test methods (the tube double dilution method), and the results are shown in the following tables 9, 10, 11 and 12.

Bacillus fragilis = assay: as above; type: cell-based; conditions: for MIC50 / MIC90: 15 strains; for MIC: range over 15 strains
Experimental: as §1

Anaerobe = assay: as above; type: cell-based; conditions: for MIC50 / MIC90: 16 strains; for MIC: range over 16 strains
Experimental: as §1

Propionibacterium = assay: as above; type: cell-based; conditions: for MIC50 / MIC90: 18 strains; for MIC: range over 18 strains
Experimental: as §1

[3] = system: Streptococcus hemolyticus; assay: as above; type: cell-based; conditions: for MIC50 / MIC90: 16 strains; for MIC: range over 16 strains
Experimental: as §1

Pneumococcus = assay: as above; type: cell-based; conditions: for MIC50 / MIC90: 18 strains; for MIC: range over 18 strains
Experimental: as §1

Bacillus influenzae = assay: as above; type: cell-based; conditions: for MIC50 / MIC90: 17 strains; for MIC: range over 17 strains
Experimental: as §1

[4] = accelerated stability test (sealed vial, 30° C., HPLC content and related substances); type: physicochemical
Experimental: The hydrates of erythromycin salts according to the present invention can be stably stored. A sample of the above hydrates was sealed in a vial, and an accelerated stability test was conducted at 30° C. and changes of the content and related substances were measured by a HPLC method (C18 reverse phase column, 0.01M KH2PO4-acetonitrile (60:40) as the mobile phase, detective wavelength: 215 nm, column temperature: 35° C., flow rate: 1.0 ml/min) (upon different hydrates of erythromycin salts, such as crystalline hydrates of erythromycin thiocyanate, the pH of the mobile phase can be adjusted and KH2PO4 can be changed into NaH2PO4, the detective wavelength can be changed into 210 nm, and the column temperature can be set at 35-55° C., such as 50° C. for analysis and measurement). […] As compared to the anhydrous of erythromycin salt, the hydrates of erythromycin salts according to the present invention have a lower hygroscopicity, i.e., has a better stability of hygroscopicity, which facilitates the package and storage thereof, or is a more advantageously stable form for storage relative to the anhydrous.

Streptococcus viridan = assay: antibacterial activity, tube double dilution method, clinically obtained bacteria; type: cell-based; conditions: 23 strains
Escherichia coli = assay: as above; type: cell-based; conditions: 21 strains
[5] = spray-dried product

CC[C@H]1OC(=O)[C@H](C)[C@@H](O[C@H]2C[C@@](C)(OC)[C@@H](O)[C@H](C)O2)[C@H](C)[C@@H](O[C@@H]2O[C@H](C)C[C@H](N(C)C)[C@H]2O)[C@](C)(O)C[C@@H](C)C(=O)[C@H](C)[C@@H](O)[C@]1(C)O.O=C(O)[C@H](O)[C@@H](O)[C@H](O[C@@H]1O[C@H](CO)[C@H](O)[C@H](O)[C@H]1O)[C@H](O)CO [Erythromycin lactobionate anhydrous, reference compound]
hygroscopicity (in words), compared with the anhydrous ([1]; relative humidity 75%): more hygroscopic

CC[C@H]1OC(=O)[C@H](C)[C@@H](O[C@H]2C[C@@](C)(OC)[C@@H](O)[C@H](C)O2)[C@H](C)[C@@H](O[C@@H]2O[C@H](C)C[C@H](N(C)C)[C@H]2O)[C@](C)(O)C[C@@H](C)C(=O)[C@H](C)[C@@H](O)[C@]1(C)O.O.O.O.O.O.O.O=C(O)[C@H](O)[C@@H](O)[C@H](O[C@@H]1O[C@H](CO)[C@H](O)[C@H](O)[C@H]1O)[C@H](O)CO [erythromycin lactobionate hexahydrate]
MIC50 (Staphylococcus aureus): 0.12 µg/mL
MIC50 [2]: 16 µg/mL
MIC50 (Neisseria gonorrhoeae): 0.25 µg/mL
MIC90 (Neisseria gonorrhoeae): 1 µg/mL
MIC (Neisseria gonorrhoeae): 0.06 to 2 µg/mL
MIC50 (Bacillus fragilis): 4 µg/mL
MIC90 (Bacillus fragilis): 16 µg/mL
MIC (Bacillus fragilis): 0.5 to 64 µg/mL
MIC50 (Anaerobe): 2 µg/mL
MIC90 (Anaerobe): 16 µg/mL
MIC (Anaerobe): 0.06 to 64 µg/mL
MIC50 (Propionibacterium): 0.06 µg/mL
MIC90 (Propionibacterium): 0.12 µg/mL
MIC (Propionibacterium): 0.03 to 16 µg/mL
MIC50 [3]: 0.06 µg/mL
MIC90 [3]: 32 µg/mL
MIC [3]: 0.03 to 32 µg/mL
MIC50 (Pneumococcus): 0.06 µg/mL
MIC90 (Pneumococcus): 1 µg/mL
MIC (Pneumococcus): 0.03 to 0.5 µg/mL
MIC50 (Bacillus influenzae): 4 µg/mL
MIC90 (Bacillus influenzae): 8 µg/mL
MIC (Bacillus influenzae): 0.12 to 8 µg/mL
Assay (%) ([4]; month 0): 99.7%
Form ([4]; month 0): off-white powder
Assay (%) ([4]; month 1): 99.6%
Form ([4]; month 1): off-white powder
Assay (%) ([4]; month 2): 100.2%
Form ([4]; month 2): off-white powder
Assay (%) ([4]; month 3): 99.8%
Form ([4]; month 3): off-white powder
Assay (%) ([4]; month 6): 99.6%
Form ([4]; month 6): off-white powder
MIC50 (Streptococcus viridan): 0.06 µg/mL
MIC90 (Streptococcus viridan): 0.5 µg/mL
MIC50 (Escherichia coli): 4 µg/mL

CC[C@H]1OC(=O)[C@H](C)[C@@H](O[C@H]2C[C@@](C)(OC)[C@@H](O)[C@H](C)O2)[C@H](C)[C@@H](O[C@@H]2O[C@H](C)C[C@H](N(C)C)[C@H]2O)[C@](C)(O)C[C@@H](C)C(=O)[C@H](C)[C@@H](O)[C@]1(C)O.O.O.O.O.O.O=C(O)[C@H](O)[C@@H](O)[C@H](O[C@@H]1O[C@H](CO)[C@H](O)[C@H](O)[C@H]1O)[C@H](O)CO [erythromycin lactobionate pentahydrate]
potency [5]: 626 u/mg
MIC50 (Staphylococcus aureus): 0.12 µg/mL
MIC50 [2]: 16 µg/mL
MIC50 (Neisseria gonorrhoeae): 0.25 µg/mL
MIC90 (Neisseria gonorrhoeae): 1 µg/mL
MIC (Neisseria gonorrhoeae): 0.06 to 2 µg/mL
MIC50 (Bacillus fragilis): 4 µg/mL
MIC90 (Bacillus fragilis): 16 µg/mL
MIC (Bacillus fragilis): 0.5 to 64 µg/mL
MIC50 (Propionibacterium): 0.06 µg/mL
MIC90 (Propionibacterium): 0.12 µg/mL
MIC (Propionibacterium): 0.03 to 16 µg/mL
MIC50 [3]: 0.06 µg/mL
MIC90 [3]: 32 µg/mL
MIC [3]: 0.03 to 32 µg/mL
MIC50 (Pneumococcus): 0.06 µg/mL
MIC90 (Pneumococcus): 1 µg/mL
MIC (Pneumococcus): 0.03 to 0.5 µg/mL
MIC50 (Bacillus influenzae): 4 µg/mL
MIC90 (Bacillus influenzae): 8 µg/mL
MIC (Bacillus influenzae): 0.12 to 8 µg/mL
Assay (%) ([4]; month 0): 99.9%
Form ([4]; month 0): off-white powder
Assay (%) ([4]; month 1): 100.2%
Form ([4]; month 1): off-white powder
Assay (%) ([4]; month 2): 99.8%
Form ([4]; month 2): off-white powder
Assay (%) ([4]; month 3): 100.1%
Form ([4]; month 3): off-white powder
Assay (%) ([4]; month 6): 99.9%
Form ([4]; month 6): off-white powder
MIC50 (Streptococcus viridan): 0.06 µg/mL
MIC90 (Streptococcus viridan): 0.5 µg/mL
MIC50 (Escherichia coli): 4 µg/mL

CC[C@H]1OC(=O)[C@H](C)[C@@H](O[C@H]2C[C@@](C)(OC)[C@@H](O)[C@H](C)O2)[C@H](C)[C@@H](O[C@@H]2O[C@H](C)C[C@H](N(C)C)[C@H]2O)[C@](C)(O)C[C@@H](C)C(=O)[C@H](C)[C@@H](O)[C@]1(C)O [erythromycin lactobionate trihydrate]
MIC50 (Staphylococcus aureus; Staphylococcus aureus, read-out: MIC50): 0.12 µg/mL
MIC50 ([2]; Staphylococcus epidermidis, read-out: MIC50): 16 µg/mL
MIC50 (Neisseria gonorrhoeae; Neisseria gonorrhoeae, read-out: MIC50): 0.25 µg/mL
MIC90 (Neisseria gonorrhoeae; Neisseria gonorrhoeae, read-out: MIC90): 1 µg/mL
MIC (Neisseria gonorrhoeae; Neisseria gonorrhoeae, read-out: MIC): 0.06 to 2 µg/mL
MIC50 (Bacillus fragilis; Bacillus, read-out: MIC50): 4 µg/mL
MIC90 (Bacillus fragilis; Bacillus, read-out: MIC90): 16 µg/mL
MIC (Bacillus fragilis; Bacillus, read-out: MIC): 0.5 to 64 µg/mL
MIC50 (Propionibacterium; Propionibacterium, read-out: MIC50): 0.06 µg/mL
MIC90 (Propionibacterium; Propionibacterium, read-out: MIC90): 0.12 µg/mL
MIC (Propionibacterium; Propionibacterium, read-out: MIC): 0.03 to 16 µg/mL
MIC50 ([3]; Streptococcus pyogenes, read-out: MIC50): 0.06 µg/mL
MIC90 ([3]; Streptococcus pyogenes, read-out: MIC90): 32 µg/mL
MIC [3]: 0.03 to 32 µg/mL
MIC50 (Pneumococcus; read-out: MIC50): 0.06 µg/mL
MIC90 (Pneumococcus; read-out: MIC90): 1 µg/mL
MIC (Pneumococcus; read-out: MIC): 0.03 to 0.5 µg/mL
MIC50 (Bacillus influenzae; Bacillus, read-out: MIC50): 4 µg/mL
MIC90 (Bacillus influenzae; Bacillus, read-out: MIC90): 8 µg/mL
MIC (Bacillus influenzae; Bacillus, read-out: MIC): 0.12 to 8 µg/mL
Assay (%) ([4]; month 0): 99.9%
Form ([4]; month 0): off-white powder
Assay (%) ([4]; month 1): 100.2%
Form ([4]; month 1): off-white powder
Assay (%) ([4]; month 2): 99.8%
Form ([4]; month 2): off-white powder
Assay (%) ([4]; month 3): 100.1%
Form ([4]; month 3): off-white powder
Assay (%) ([4]; month 6): 99.9%
Form ([4]; month 6): off-white powder
MIC50 (Streptococcus viridan; Streptococcus, read-out: MIC50): 0.06 µg/mL
MIC90 (Streptococcus viridan; Streptococcus, read-out: MIC90): 0.5 µg/mL
MIC50 (Escherichia coli; Escherichia coli, read-out: MIC50): 4 µg/mL

CC[C@H]1OC(=O)[C@H](C)[C@@H](O[C@H]2C[C@@](C)(OC)[C@@H](O)[C@H](C)O2)[C@H](C)[C@@H](O[C@@H]2O[C@H](C)C[C@H](N(C)C)[C@H]2O)[C@](C)(O)C[C@@H](C)C(=O)[C@H](C)[C@@H](O)[C@]1(C)O.N#CS.O.O [erythromycin thiocyanate dihydrate]
MIC50 (Staphylococcus aureus): 0.12 µg/mL
MIC50 [2]: 16 µg/mL
MIC50 (Neisseria gonorrhoeae): 0.25 µg/mL
MIC90 (Neisseria gonorrhoeae): 1 µg/mL
MIC (Neisseria gonorrhoeae): 0.06 to 2 µg/mL
MIC50 (Bacillus fragilis): 4 µg/mL
MIC90 (Bacillus fragilis): 16 µg/mL
MIC (Bacillus fragilis): 0.5 to 64 µg/mL
MIC50 (Anaerobe): 2 µg/mL
MIC90 (Anaerobe): 16 µg/mL
MIC (Anaerobe): 0.06 to 64 µg/mL
MIC50 (Propionibacterium): 0.06 µg/mL
MIC90 (Propionibacterium): 0.12 µg/mL
MIC (Propionibacterium): 0.03 to 16 µg/mL
MIC50 [3]: 0.06 µg/mL
MIC90 [3]: 32 µg/mL
MIC [3]: 0.03 to 32 µg/mL
MIC50 (Pneumococcus): 0.06 µg/mL
MIC90 (Pneumococcus): 1 µg/mL
MIC (Pneumococcus): 0.03 to 0.5 µg/mL
MIC50 (Bacillus influenzae): 4 µg/mL
MIC90 (Bacillus influenzae): 8 µg/mL
MIC (Bacillus influenzae): 0.12 to 8 µg/mL
Assay (%) ([4]; month 0): 99.9%
Form ([4]; month 0): off-white powder
Assay (%) ([4]; month 1): 99.9%
Form ([4]; month 1): off-white powder
Assay (%) ([4]; month 2): 100.4%
Form ([4]; month 2): off-white powder
Assay (%) ([4]; month 3): 100.2%
Form ([4]; month 3): off-white powder
Assay (%) ([4]; month 6): 99.8%
Form ([4]; month 6): off-white powder
MIC50 (Streptococcus viridan): 0.06 µg/mL
MIC90 (Streptococcus viridan): 0.5 µg/mL
MIC50 (Escherichia coli): 4 µg/mL

CC[C@H]1OC(=O)[C@H](C)[C@@H](O[C@H]2C[C@@](C)(OC)[C@@H](O)[C@H](C)O2)[C@H](C)[C@@H](O[C@@H]2O[C@H](C)C[C@H](N(C)C)[C@H]2O)[C@](C)(O)C[C@@H](C)C(=O)[C@H](C)[C@@H](O)[C@]1(C)O.N#CS.O.O.O [erythromycin thiocyanate trihydrate]
Assay (%) ([4]; month 0): 99.8%
Form ([4]; month 0): off-white powder
Assay (%) ([4]; month 1): 99.9%
Form ([4]; month 1): off-white powder
Assay (%) ([4]; month 2): 100.6%
Form ([4]; month 2): off-white powder
Assay (%) ([4]; month 3): 100.3%
Form ([4]; month 3): off-white powder
Assay (%) ([4]; month 6): 100.1%
Form ([4]; month 6): off-white powder

erythromycin thiocyanate hemitri(1.5)hydrate
Hygroscopic weight gain %, relative to 0 h ([1]; RH 75%, 48 h): 3.12%
Assay (%) ([4]; month 0): 99.9%
Form ([4]; month 0): off-white powder
Assay (%) ([4]; month 1): 100.3%
Form ([4]; month 1): off-white powder
Assay (%) ([4]; month 2): 100.5%
Form ([4]; month 2): off-white powder
Assay (%) ([4]; month 3): 100.1%
Form ([4]; month 3): off-white powder
Assay (%) ([4]; month 6): 100.2%
Form ([4]; month 6): off-white powder
